This passage reports EC50 results from US20220054451A1, “2,3-DIHYDROBENZO[b]THIOPHENE DERIVATIVES AS HYPOXIA INDUCIBLE FACTOR-2(ALPHA) INHIBITORS” (NiKang Therapeutics, Inc., priority 2018, published 2022).

For the assay, the target named is T1, HIF-2α (Homo sapiens, UniProt Q99814).
T1 construct: endogenous in cells; host or cells: 786-O cells
T1 sequence (Q99814 whole entry): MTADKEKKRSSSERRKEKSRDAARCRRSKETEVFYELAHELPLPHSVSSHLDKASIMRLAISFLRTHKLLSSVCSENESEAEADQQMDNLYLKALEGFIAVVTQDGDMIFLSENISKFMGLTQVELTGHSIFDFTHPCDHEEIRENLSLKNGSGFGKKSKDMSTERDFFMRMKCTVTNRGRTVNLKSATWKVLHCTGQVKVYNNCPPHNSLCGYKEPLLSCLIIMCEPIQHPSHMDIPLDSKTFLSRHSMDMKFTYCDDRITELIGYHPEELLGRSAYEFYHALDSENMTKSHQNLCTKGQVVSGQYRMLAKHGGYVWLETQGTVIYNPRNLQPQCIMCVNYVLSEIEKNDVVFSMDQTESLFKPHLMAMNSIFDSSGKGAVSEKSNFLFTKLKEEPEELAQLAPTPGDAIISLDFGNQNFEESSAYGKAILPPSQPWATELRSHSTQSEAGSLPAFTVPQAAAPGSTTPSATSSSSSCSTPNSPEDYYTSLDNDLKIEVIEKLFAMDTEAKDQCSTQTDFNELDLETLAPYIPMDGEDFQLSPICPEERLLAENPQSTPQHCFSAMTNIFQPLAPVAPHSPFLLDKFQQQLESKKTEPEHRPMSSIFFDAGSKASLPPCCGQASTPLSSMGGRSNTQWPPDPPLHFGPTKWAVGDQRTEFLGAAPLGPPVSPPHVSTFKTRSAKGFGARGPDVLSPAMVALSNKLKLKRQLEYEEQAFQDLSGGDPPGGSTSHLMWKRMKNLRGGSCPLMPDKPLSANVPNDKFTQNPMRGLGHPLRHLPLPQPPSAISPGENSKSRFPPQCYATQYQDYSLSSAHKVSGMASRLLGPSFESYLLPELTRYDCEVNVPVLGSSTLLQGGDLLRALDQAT
Briefly: VEGF ELISA assay: VEGF expression in 786-O cells. In kind it is cell-based. To be noted: VEGF concentration in culture medium by ELISA, compounds from 10 uM down to 1 nM, treated twice, medium collected 24 hours after second treatment. How it is done:
The ability of the disclosed compounds to inhibit HIF-2α was measured by determining VEGF expression in 786-O cells. About 7500 786-O cells were seeded into each well of a 96-well, white, clear bottom plate (07-200-566, Fisher Scientific) with 200 ul growth medium. Four hours later, compounds were dispensed into wells by Tecan D300e digital dispenser with starting concentration of 10 uM and ½ log of dilution down to 1 nM as final concentration. Each concentration of treatment was performed in duplicate. About 20 hours later, medium was removed and fresh medium was added, followed by compounds treatment as described above. 24 hours later, cell culture medium was collected to determine VEGF concentration using an ELISA kit (R&D systems, cat #DVE00) following the manufacturer's instruction.
The IC50 is calculated by GraphPad Prism using the dose-response-inhibition (four parameter) equation. The plate with cells was then subjected to CellTiter-Glo luminescence cell viability assay (Promega) to determine the effect of these compounds on cell numbers after the above treatment.
Background: In an ELISA, binding on a coated surface is turned into a signal by an enzyme label.
As usually defined, the EC50 is the concentration needed to bring the measured effect to its halfway point. A higher EC50 goes with lower potency in that assay. The compound `N#Cc1cc(Cl)cc(Oc2ccc3c(c2C(F)F)[S@@+]([O-])C(F)(F)[C@H]3F)c1` (single isomer, unassigned) [Compound 6d] yielded an EC50 of 280 nM. As for `[O-][S@@+]1c2c(ccc(Oc3cc(F)cc(F)c3)c2C(F)F)[C@H](F)C1(F)F` (single isomer, unassigned) [Compound 9a], the figure is 970 nM; as for `[O-][S@+]1c2c(ccc(Oc3cc(F)cc(F)c3)c2C(F)F)[C@@H](F)C1(F)F` (single isomer, unassigned) [Compound 9b], 1200 nM; as for `[O-][S@+]1c2c(ccc(Oc3cc(F)cc(F)c3)c2C(F)F)[C@H](F)C1(F)F` (single isomer, unassigned) [Compound 9c], 74 nM. `[O-][S@@+]1c2c(ccc(Oc3cc(F)cc(F)c3)c2C(F)F)[C@@H](F)C1(F)F` (single isomer, unassigned) [Compound 9d] came in with an EC50 of 3270 nM.

`[O-][S@@+]1c2c(ccc(Oc3cc(F)cc(Cl)c3)c2C(F)F)[C@H](F)C1(F)F` (single isomer, unassigned) [Compound 12a] showed a concentration giving a half-maximal response (EC50) of 860 nM. This EC50 lies about 3.8-fold lower than the previous one. As for `[O-][S@+]1c2c(ccc(Oc3cc(F)cc(Cl)c3)c2C(F)F)[C@@H](F)C1(F)F` (single isomer, unassigned) [Compound 12b], the figure is 880 nM; as for `[O-][S@+]1c2c(ccc(Oc3cc(F)cc(Cl)c3)c2C(F)F)[C@H](F)C1(F)F` (single isomer, unassigned) [Compound 12c], 45 nM. As for `[O-][S@@+]1c2c(ccc(Oc3cc(F)cc(Cl)c3)c2C(F)F)[C@@H](F)C1(F)F` (single isomer, unassigned) [Compound 12d], the figure is 1600 nM; as for `N#Cc1cc(F)cc(Oc2ccc3c(c2C(F)F)[S+]([O-])C(F)(F)C3(F)F)c1` (single isomer, unassigned) [Compound 13a], 37 nM. `N#Cc1cc(F)cc(Oc2ccc3c(c2C(F)F)[S+]([O-])C(F)(F)C3(F)F)c1` (single isomer, unassigned) [Compound 13b]: the EC50 stood at 190 nM. On to `N#Cc1cc(F)cc(Oc2ccc3c(c2C(F)F)[S+]([O-])C(F)(F)C3=O)c1` (stereo not shown) [Compound 1, 3-((7-(difluoromethyl)-2,2-difluoro-1-oxido-3-oxo-2,3-dihydrobenzo[b]thiophen-6-yl)oxy)-5-fluorobenzonitrile], for which the 50% effective concentration (EC50) was found to be 720 nM. As for `[O-][S+]1c2c(ccc(Oc3cc(F)cc(F)c3)c2C(F)F)C(F)(F)C1(F)F` (stereo not shown) [Compound 15, 7-(difluoromethyl)-6-(3,5-difluorophenoxy)-2,2,3,3-tetrafluoro-2,3-dihydrobenzo[b]-thiophene 1-oxide], the figure is 130 nM; as for `N#Cc1cncc(Oc2ccc3c(c2C(F)F)[S+]([O-])C(F)(F)C3(F)F)c1` (stereo not shown) [Compound 16, 5-((7-(difluoromethyl)-2,2,3,3-tetrafluoro-1-oxido-2,3-dihydrobenzo[b]thiophen-6-yl)oxy)nicotinonitrile], 2390 nM. As for `[O-][S+]1c2c(ccc(Oc3cncc(F)c3)c2C(F)F)C(F)(F)C1(F)F` (stereo not shown) [Compound 17, 7-(difluoromethyl)-2,2,3,3-tetrafluoro-6-((5-fluoropyridin-3-yl)oxy)-2,3-dihydrobenzo-[b]thiophene 1-oxide], the figure is 2130 nM; as for `[O-][S+]1c2c(ccc(Oc3cncc(Cl)c3)c2C(F)F)C(F)(F)C1(F)F` (stereo not shown) [Compound 18, 6-((5-chloropyridin-3-yl)oxy)-7-(difluoromethyl)-2,2,3,3-tetrafluoro-2,3-dihydrobenzo-[b]thiophene 1-oxide], 1800 nM. As for `[O-][S+]1c2c(ccc(OC3CC(F)(F)C3)c2C(F)F)C(F)(F)C1(F)F` (stereo not shown) [Compound 19, 6-(3,3-difluorocyclobutoxy)-7-(difluoromethyl)-2,2,3,3-tetrafluoro-2,3-dihydrobenzo[b]-thiophene 1-oxide], the figure is 2680 nM. `N#Cc1cc(F)cc(Oc2ccc3c(c2C(F)F)S(=O)(=O)C(F)(F)C3(F)F)c1` [Compound 20, 3-((7-(difluoromethyl)-2,2,3,3-tetrafluoro-1,1-dioxido-2,3-dihydrobenzo[b]thiophen-6-yl)oxy)-5-fluorobenzonitrile] showed a 50% effective concentration (EC50) of 27 nM. As for `N#Cc1cc(F)cc(Oc2ccc3c(c2Cl)[S+]([O-])C(F)(F)C3(F)F)c1` (stereo not shown) [Compound 28, 3-((7-chloro-2,2,3,3-tetrafluoro-1-oxido-2,3-dihydrobenzo[b]thiophen-6-yl)oxy)-5-fluorobenzonitrile], the figure is 240 nM.

As to `N#Cc1cc(F)cc(Oc2ccc3c(c2Cl)S(=O)(=O)C(F)(F)C3(F)F)c1` [Compound 29, 3-((7-chloro-2,2,3,3-tetrafluoro-1,1-dioxido-2,3-dihydrobenzo [b]thiophen-6-yl)oxy)-5-fluorobenzonitrile], a half-maximal response (EC50) required 190 nM.

Turning to `N#Cc1cc(F)cc(Oc2ccc3c(c2Br)[S+]([O-])C(F)(F)C3(F)F)c1` (stereo not shown) [Compound 30, 3-((7-bromo-2,2,3,3-tetrafluoro-1-oxido-2,3-dihydrobenzo[b]thiophen-6-yl)oxy)-5-fluorobenzonitrile], the EC50 turned out to be 390 nM. Compound `N#Cc1cc(F)cc(Oc2ccc3c(c2C#N)[S+]([O-])C(F)(F)C3(F)F)c1` (stereo not shown) [Compound 31, 6-(3-cyano-5-fluorophenoxy)-2,2,3,3-tetrafluoro-2,3-dihydrobenzo [b]thiophene-7-carbonitrile 1-oxide] had an EC50 of 190 nM.

“a mixture of 3-(((1S,3R)-7- (difluoromethyl)-2,2,3-trifluoro-1- oxido-2,3-dihydrobenzo- [b]thiophen-6-yl)oxy)-5- fluorobenzonitrile and 3-(((1R,3S)- 7-(difluoromethyl)-2,2,3- trifluoro-1-oxido-2,3-dihydrobenzo [b]thiophen-6-yl)oxy)-5- fluorobenzonitrile [Compound 3a]” displayed an EC50 of 3500 nM. Compound “a mixture of 3-(((1S,3S)-7- (difluoromethyl)-2,2,3-trifluoro-1- oxido-2,3-dihydrobenzo- [b]thiophen-6-yl)oxy)-5- fluorobenzonitrile and 3-(((1R,3R)- 7-(difluoromethyl)-2,2,3- trifluoro-1-oxido-2,3-dihydrobenzo [b]thiophen-6-yl)oxy)-5- fluorobenzonitrile [Compound 3b]” yielded an EC50 of 160 nM. Regarding “a mixture of 3-fluoro-5-(((1R,3R)- 2,2,3-trifluoro-1-oxido-7- (trifluoromethyl)-2,3- dihydrobenzo[b]thiophen-4-yl)oxy) benzonitrile and 3-fluoro-5- (((1S,3S)-2,2,3-trifluoro-1- oxido-7-(trifluoromethyl)-2,3- dihydrobenzo[b]thiophen-4-yl) oxy)benzonitrile [Compound 27a]”, a half-maximal response (EC50) required 9400 nM. As for “a mixture of 3-fluoro-5-(((1R,3R)- 2,2,3-trifluoro-7-(methylsulfonyl)- 1-oxido-2,3- dihydrobenzo[b]thiophen-4-yl)oxy) benzonitrile and 3-fluoro-5- (((1S,3S)-2,2,3-trifluoro-7- (methylsulfonyl)-1-oxido-2,3- dihydrobenzo[b]thiophen-4-yl) oxy)benzonitrile [Compound 24b]”, the figure is 18500 nM.

“a mixture of 3-fluoro-5-(((1S,3R)- 2,2,3-trifluoro-1-oxido-7- (trifluoromethyl)-2,3- dihydrobenzo[b]thiophen-4-yl)oxy) benzonitrile and 3-fluoro-5- (((1R,3S)-2,2,3-trifluoro-1- oxido-7-(trifluoromethyl)-2,3- dihydrobenzo[b]thiophen-4-yl) oxy)benzonitrile [Compound 27b]” came in with a half-maximal effective concentration (EC50) of 670 nM.

Regarding “a mixture of 3-fluoro-5-(((1S,3R)- 2,2,3-trifluoro-7-(methylsulfonyl)- 1-oxido-2,3- dihydrobenzo[b]thiophen-4-yl)oxy) benzonitrile and 3-fluoro-5- (((1R,3S)-2,2,3-trifluoro-7- (methylsulfonyl)-1-oxido-2,3- dihydrobenzo[b]thiophen-4-yl) oxy)benzonitrile [Compound 24a]”, the 50% effective concentration (EC50) came out at 8900 nM.
